In ChEMBL document CHEMBL1201862, “PubChem BioAssay data set” (2004):
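Each compound was tested at five concentrations against cells in 96-well plates for 48 hours. The concentration for 50% growth inhibition is given as GI50.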 Calls of active or inactive are those of the source. Rule as the data show it: active = GI50 up to about 1.1 µM and inactive = higher.

Legend:
Experiment in all cases: DTP human tumour cell line panel, 48 h
Hs-578T = system: Hs-578T
SNB-19 = system: SNB-19
NCI-H522 = system: NCI-H522
U-251 = system: U-251
SN12C = system: SN12C
OVCAR-8 = system: OVCAR-8
MDA-MB-435 = system: MDA-MB-435
HCC 2998 = system: HCC 2998
786-0 = system: 786-0
CAKI-1 = system: CAKI-1
HT-29 = system: HT-29
SK-OV-3 = system: SK-OV-3
SF-295 = system: SF-295
MCF7 = system: MCF7
UO-31 = system: UO-31
NCI-H226 = system: NCI-H226
RXF 393 = system: RXF 393
A549 = system: A549
RPMI-8226 = system: RPMI-8226
HCT-116 = system: HCT-116

Row | SMILES | GI50 (Hs-578T) | GI50 (SNB-19) | GI50 (NCI-H522) | GI50 (U-251) | GI50 (SN12C) | GI50 (OVCAR-8) | GI50 (MDA-MB-435) | GI50 (HCC 2998) | GI50 (786-0) | GI50 (CAKI-1) | GI50 (HT-29) | GI50 (SK-OV-3) | GI50 (SF-295) | GI50 (MCF7) | GI50 (UO-31) | GI50 (NCI-H226) | GI50 (RXF 393) | GI50 (A549) | GI50 (RPMI-8226) | GI50 (HCT-116)
1 | CC[C@H]1C=CCC[C@@]2(C[C@@H]3CC[C@@H]4[C@H](C(=O)OCCCCCCCCCCCCCCCC(=O)N(CCCN)C[C@@H](O)CCN)[C@]5(CCC[C@@H](C)O5)NC(=[N+]34)N2)O1 | 1.21 µM (inactive) | 0.0822 µM (active) | 0.174 µM (active) | 0.381 µM (active) | 0.766 µM (active) | 0.451 µM (active) | 0.0524 µM (active) | 0.175 µM (active) | 0.143 µM (active) | 0.0528 µM (active) | 0.299 µM (active) | 2.05 µM (inactive) | 0.518 µM (active) | 0.46 µM (active) | 0.337 µM (active) | 0.968 µM (active) | 0.439 µM (active) | 0.282 µM (active) | 0.0855 µM (active) | 0.286 µM (active)
2 | COC12C=CC(CC1)C(C)(C)C2OS(C)(=O)=O (stereo unspecified) | > 100 µM (inactive) | > 100 µM (inactive) | > 100 µM (inactive) | > 100 µM (inactive) | > 100 µM (inactive) | > 100 µM (inactive) | > 100 µM (inactive) | > 100 µM (inactive) | > 100 µM (inactive) | > 100 µM (inactive) | > 100 µM (inactive) | > 100 µM (inactive) | > 100 µM (inactive) | > 100 µM (inactive) | > 100 µM (inactive) | > 100 µM (inactive) | > 100 µM (inactive) | > 100 µM (inactive) | > 100 µM (inactive) | > 100 µM (inactive)
3 | COc1ccc2c(c1)[C@@]13CCCC[C@H]1[C@@H](C2)N(C)CC3=O | 19.2 µM (inactive) | 76.9 µM (inactive) | 18.3 µM (inactive) | 22.2 µM (inactive) | 21.4 µM (inactive) | 19.3 µM (inactive) | 19 µM (inactive) | 16.8 µM (inactive) | 17.9 µM (inactive) | 28.3 µM (inactive) | 21.5 µM (inactive) | 16 µM (inactive) | 64.9 µM (inactive) | 18.3 µM (inactive) | 18.7 µM (inactive) | 21.3 µM (inactive) | 15.3 µM (inactive) | 19.9 µM (inactive) | 25.6 µM (inactive) | 16.2 µM (inactive)
4 | COC(C)(C)/C=C/c1[nH]c2ccccc2c1CC(=O)NCCc1cn(C(c2ccccc2)(c2ccccc2)c2ccccc2)cn1 | 7.1 µM (inactive) | 7.5 µM (inactive) | 3.66 µM (inactive) | 4.45 µM (inactive) | 3.41 µM (inactive) | 4.99 µM (inactive) | 3.62 µM (inactive) | 0.0272 µM (active) | 4.72 µM (inactive) | 15.9 µM (inactive) | 2.71 µM (inactive) | – | 4.7 µM (inactive) | 3.66 µM (inactive) | 5.77 µM (inactive) | 3.65 µM (inactive) | 7.16 µM (inactive) | 3.71 µM (inactive) | 2.39 µM (inactive) | 4.12 µM (inactive)
5 | COC(=O)C1=C(C)NC(C)=C(C(=O)OC)C1c1ccc(NO)cc1 | 10.8 µM (inactive) | 24.6 µM (inactive) | 0.891 µM (active) | 15.9 µM (inactive) | 18.7 µM (inactive) | 10.2 µM (inactive) | 14.1 µM (inactive) | 18.7 µM (inactive) | 15.5 µM (inactive) | 13 µM (inactive) | 7.01 µM (inactive) | 23.4 µM (inactive) | 17 µM (inactive) | 8.11 µM (inactive) | 11.3 µM (inactive) | 17.3 µM (inactive) | 15.8 µM (inactive) | 18.2 µM (inactive) | 1.73 µM (inactive) | 7.59 µM (inactive)
6 | Clc1cc2nc(C3CCCCO3)[nH]c2cc1Cl (stereo unspecified) | 7.29 µM (inactive) | 39.7 µM (inactive) | 2.59 µM (inactive) | 34.3 µM (inactive) | 38.9 µM (inactive) | 17.7 µM (inactive) | 7.67 µM (inactive) | 38 µM (inactive) | 34 µM (inactive) | 29.1 µM (inactive) | 3.5 µM (inactive) | 15.9 µM (inactive) | 38.6 µM (inactive) | 3.48 µM (inactive) | 11.1 µM (inactive) | 86.7 µM (inactive) | 8.17 µM (inactive) | 15.1 µM (inactive) | 12.8 µM (inactive) | 13.7 µM (inactive)
7 | Clc1ccc(-c2nnc(-c3c(Cl)c(Cl)c(Cl)c(Cl)c3-c3nc4ccccc4[nH]3)o2)cc1 | > 100 µM (inactive) | – | 47.9 µM (inactive) | – | 46.8 µM (inactive) | 48.2 µM (inactive) | > 100 µM (inactive) | 59 µM (inactive) | 50.4 µM (inactive) | 56.1 µM (inactive) | 98.9 µM (inactive) | > 100 µM (inactive) | 48.5 µM (inactive) | 35.1 µM (inactive) | 42.7 µM (inactive) | 54.5 µM (inactive) | 40.7 µM (inactive) | – | 31.8 µM (inactive) | 31.6 µM (inactive)
